Source: patent publication US11524943B1 (Vivace Therapeutics, Inc., priority 2017, dated 2022)

tested on: HEK293T cells stably transfected with 8×TBD luciferase reporter and pRLTK; assay: YAP Reporter Assay (8×TBD firefly luciferase reporter); format: cell-based; details: Homo sapiens, HEK-293T; HEK293T 8×TBD reporter cells, 24-hr incubation, top concentration 3 μM, 1:3 dilution, 10 points
Experimental: HEK293T cells stably transfected with 8×TBD luciferase reporter and pRLTK in 384-well plates were treated with the test compounds, starting from 3 μM (final concentration in assay plate), 1:3 dilution, and 10 points in quadruplicates. Post 24-hr incubation with compounds at 37° C. and 5% CO2, cells were lysed and 8×TBD-driven firefly luciferase and control TK-driven renilla luciferase activities were measured using Promega Dual-Luciferase Reporter Assay System.
Reagents: The reagents used for this study are: DMEM: Invitrogen #11960077, Dual-Glo Luciferase Assay System: Promega-E2980, Puromycin Dihydrochloride: Invitrogen-A1113803, 384-well plate: PerkinElmer-6007480, L-GLUTAMINE: Invitrogen-25030164, Hygromycin B: Invitrogen-10687010, and Penicillin-Streptomycin: Merk-TMS-AB2-C
Media: The media used for this assay were: Culture Medium: DMEM+1 ug/mL puromycin+200 ug/mL hygromycin (with 10% FBS+1 mM L-glutamine); and Assay Medium: DMEM (with 10% FBS+1 mM L-glutamine+1×P/S).
Cell Plating: The appropriate media was warmed at 37° C. by water bath: Culture Medium, Assay Medium, 1*D-PBS, 0.05% trypsin-EDTA. The cells were trypsinized after removing all media, then washed with 1* sterile D-PBS and then with 2 ml 0.05% trypsin-EDTA. The cells were then incubated at RT for one minute. Then 10 ml/75 cm2 flask Assay Medium was added to each flask. Using a 10 ml pipette, the cells were then gently resuspended in the media, until the clumps completely disappeared. The cells were then transferred into 50 ml centrifuge tubes and were centrifuged at 800 rpm for 5 mins. The medium was removed and the cells were resuspended with Assay Medium. An aliquot of cells was used to count the cell density (cells/ml). The cell suspension was then diluted with Assay Medium to a concentration of 6×10^4 cells/ml. 50 ul cells suspension was then plated to 384-well plate (PerkinElmer-6007480), 3×10^3 cells/well and the cells were incubated in an incubator at 37° C., 5% CO2.
Compound Treatment: In the afternoon (incubation of the plate with 3-4 hrs), the test compounds were added by Echo, starting from 3 uM (final concentration in the assay plate), 1:3 dilution, 10 points, quadruplicates. The plate was placed at 37° C., 5% CO2 incubator for 24 hrs.
Detection: The Dual-Glo Luciferase Reagent was prepared by transferring the contents of one bottle of Dual-Glo Luciferase Buffer to one bottle of Dual-Glo Luciferase Substrate to create the Dual-Glo Luciferase Reagent. Mixing was performed by inversion until the substrate was thoroughly dissolved. After mixing, the reagent was aliquoted into 15 ml tubes. In the afternoon (24 hrs post compound treatment), the DMEM+ medium in the 384 well plates were aspirated by Microplate Washer.
Measuring firefly luciferase activity: 20 ul Dual-Glo Luciferase Reagent was added to the 384-well plates. The plates were protected from light to prevent interference with the assay. The plates were shaken for 1 min followed centrifuging plates at 1000 rpm for 30 seconds. After waiting at least 10 minutes, the firefly luminescence was measured by Envision.
Measuring renilla luciferase activity: 20 ul Stop-Glo Reagent was added to the 384-well plates. The plates were shaken for 1 min and then centrifuged at 1000 rpm for 30 seconds. After waiting at least 10 minutes, the renilla luminescence was measured by Envision.
Compound IC50 and maximum inhibition on the firefly luciferase and renilla luciferase activities were reported separately.

`O=C(O)c1ccc(Nc2ccc(C(F)(F)F)cc2)c(-c2ccccn2)c1` [Compound 39, 3-(pyridin-2-yl)-4-((4-(trifluoromethyl)phenyl)amino) benzoic acid] and `O=C(O)c1ccc(Nc2ccc(C(F)(F)F)cc2)c(-c2cccnn2)c1` [Compound 46, 3-pyridazin-3-yl-4-[4-(trifluoromethyl)anilino] benzoic acid] cannot be ordered by IC50: at most 0.1 µM for the first, at most 0.1 µM for the second.

`O=C(O)c1ccc(Nc2ccc(C(F)(F)F)cc2)c(-c2ncccn2)c1` [Compound 40, 3-(pyrimidin-2-yl)-4-((4-(trifluoromethyl)phenyl)amino) benzoic acid] and `O=C(O)c1ccc(Nc2ccc(C(F)(F)F)cc2)c(-c2cnccn2)c1` [Compound 43, 3-(pyrazin-2-yl)-4-((4-(trifluoromethyl)phenyl)amino) benzoic acid] cannot be ordered by IC50: at most 0.1 µM for the first, at most 0.1 µM for the second.

`O=C(O)c1ccc(Nc2ccc(C(F)(F)F)cc2)c(-c2cscn2)c1` [Compound 41, 3-(thiazol-4-yl)-4-((4-(trifluoromethyl)phenyl)amino) benzoic acid] and `O=C(O)c1ccc(Nc2ccc(C(F)(F)F)cc2)c(-c2cocn2)c1` [Compound 57, 3-(oxazol-4-yl)-4-((4-(trifluoromethyl)phenyl)amino) benzoic acid] cannot be ordered by IC50: at most 0.1 µM for the first, at most 0.1 µM for the second.

`O=C(O)c1ccc(Nc2ccc(C(F)(F)F)cc2)c(-c2nccs2)c1` [Compound 42, 3-(thiazol-2-yl)-4-((4-(trifluoromethyl)phenyl)amino) benzoic acid] and `O=C(O)c1ccc(Nc2ccc(C(F)(F)F)cc2)c(-c2ncco2)c1` [Compound 61, 3-(oxazol-2-yl)-4-((4-(trifluoromethyl)phenyl)amino) benzoic acid] cannot be ordered by IC50: at most 0.1 µM for the first, at most 0.1 µM for the second.

`Cn1nnc(-c2cc(C(=O)NCCOCCOCCN)ccc2Nc2ccc(C(F)(F)F)cc2)n1` [Compound 44, N-(2-(2-(2-aminoethoxy)ethoxy)ethyl)-3-(2-methyl-2H-tetrazol-5-yl)-4-((4-(trifluoromethyl)phenyl)amino) benzamide] and `CC(=O)NCCOCCOCCNC(=O)c1ccc(Nc2ccc(C(F)(F)F)cc2)c(-c2nnn(C)n2)c1` [Compound 45, N-(2-(2-(2-acetamidoethoxy)ethoxy)ethyl)-3-(2-methyl-2H-tetrazol-5-yl)-4-((4-(trifluoromethyl)phenyl)amino) benzamide] cannot be ordered by IC50: 0.1 to 1 µM for the first, at most 0.1 µM for the second.

`Cn1nnc(-c2cc(C(=O)NCCOCCOCCNC(=O)OC(C)(C)C)ccc2Nc2ccc(C(F)(F)F)cc2)n1` [Compound 47, tert-butyl (2-(2-(2-(3-(2-methyl-2H-tetrazol-5-yl)-4-((4-(trifluoromethyl)phenyl)amino)benzamido)ethoxy)ethoxy)ethyl)carbamate] and `Cn1nnc(-c2cc(C(=O)NCCOCCOCCOCCOCCNC(=O)OC(C)(C)C)ccc2Nc2ccc(C(F)(F)F)cc2)n1` [Compound 63, tert-butyl (1-(3-(2-methyl-2H-tetrazol-5-yl)-4-((4-(trifluoromethyl)phenyl)amino)phenyl)-1-oxo-5,8,11,14-tetraoxa-2-azahexadecan-16-yl)carbamate] fall in the same range of IC50: 0.1 to 1 µM for the first, 0.1 to 1 µM for the second.

`O=C(O)c1ccc(Nc2ccc(C(F)(F)F)cc2)c(-c2cc(F)ccn2)c1` [Compound 49, 3-(4-fluoro-2-pyridyl)-4-[4-(trifluoromethyl)anilino] benzoic acid] and `O=C(O)c1ccc(Nc2ccc(C(F)(F)F)cc2)c(-c2cc(Cl)ccn2)c1` [Compound 55, 3-(4-chloro-2-pyridyl)-4-[4-(trifluoromethyl)anilino] benzoic acid] cannot be ordered by IC50: at most 0.1 µM for the first, at most 0.1 µM for the second.

`COc1ccnc(-c2cc(C(=O)O)ccc2Nc2ccc(C(F)(F)F)cc2)c1` [Compound 50] and `O=C(O)c1ccc(Nc2ccc(C(F)(F)F)cc2)c(-c2ccncn2)c1` [Compound 60, 3-pyrimidin-4-yl-4-[4-(trifluoromethyl)anilino] benzoic acid] cannot be ordered by IC50: at most 0.1 µM for the first, 0.1 to 1 µM for the second.

`O=C(O)c1ccc(Nc2ccc(C(F)(F)F)cc2)c(-c2ccc(F)cn2)c1` [Compound 51, 3-(5-fluoro-2-pyridyl)-4-[4-(trifluoromethyl)anilino] benzoic acid] and `O=C(O)c1ccc(Nc2ccc(C(F)(F)F)cc2)c(-c2ccc(Cl)cn2)c1` [Compound 52, 3-(5-chloro-2-pyridyl)-4-[4 (trifluoromethyl)anilino] benzoic acid] cannot be ordered by IC50: at most 0.1 µM for the first, at most 0.1 µM for the second.

`COC(=O)c1ccc(Nc2ccc(C(F)(F)F)cc2)c(-c2nnc(C3CC3)o2)c1` [Compound 53, methyl 3-(5-cyclopropyl-1,3,4-oxadiazol-2-yl)-4-((4-(trifluoromethyl)phenyl)amino)benzoate] and `O=C(O)c1ccc(Nc2ccc(C(F)(F)F)cc2)c(-c2nnc(C3CC3)o2)c1` [Compound 54, 3-(5-cyclopropyl-1,3,4-oxadiazol-2-yl)-4-((4-(trifluoromethyl)phenyl)amino) benzoic acid] cannot be ordered by IC50: at most 0.1 µM for the first, at most 0.1 µM for the second.

`COC(=O)c1ccc(Nc2ccc(C(F)(F)F)cc2)c(-c2cc(N)ncn2)c1` [Compound 56, methyl 3-(6-aminopyrimidin-4-yl)-4-[4-(trifluoromethyl)anilino] benzoate] and `O=C(O)c1ccc(Nc2ccc(C(F)(F)F)cc2)c(-c2nnc(C3CC3)s2)c1` [Compound 59, 3-(5-cyclopropyl-1,3,4-thiadiazol-2-yl)-4-((4-(trifluoromethyl)phenyl)amino) benzoic acid] cannot be ordered by IC50: at most 0.1 µM for the first, at most 0.1 µM for the second.

`O=C(O)c1ccc(Nc2ccc(C(F)(F)F)cc2)c(-c2nnc(C(F)(F)F)s2)c1` [Compound 58, 4-[4-(trifluoromethyl)anilino]-3-[5-(trifluoromethyl)-1,3,4-thiadiazol-2-yl]benzoic acid] and `COCC(=O)NCCOCCOCCNC(=O)c1ccc(Nc2ccc(C(F)(F)F)cc2)c(-c2nnn(C)n2)c1` [Compound 64, 3-(2-methyl-2H-tetrazol-5-yl)-N-(4-oxo-2,8,11-trioxa-5-azatridecan-13-yl)-4-((4-(trifluoromethyl)phenyl)amino) benzamide] cannot be ordered by IC50: at most 0.1 µM for the first, 0.1 to 1 µM for the second.

For `COCCC(=O)NCCOCCOCCNC(=O)c1ccc(Nc2ccc(C(F)(F)F)cc2)c(-c2nnn(C)n2)c1` [Compound 65, 3-(2-methyl-2H-tetrazol-5-yl)-N-(5-oxo-2,9,12-trioxa-6-azatetradecan-14-yl)-4-((4-(trifluoromethyl)phenyl)amino) benzamide], the IC50 was 0.1 to 1 µM.
